Values of other authors, collected in US20220192199A1, “METHOD FOR REMOVING BIOFILM” (KAO CORPORATION, priority 2019, published 2022).

Settings: primary dissociation constant

O=C(O)CCO [3-hydoxypropionic acid]
pKa1: 4.5

O=C(O)[C@H](O)[C@@H](O)[C@H](O)[C@H](O)CO [gluconic acid]
pKa1: 3.86
